# Test results taken from patent publication US12187816B2, “Macrocyclic compounds and methods of use thereof” (Genentech, Inc., priority 2020, dated 2025).
# Starred links: 1 amine or outer side, 2 acyl side, 3 side chain; linkers in the order of their positions; H or OH if unused. Positions of bridges follow the written chain, without caps; N, C: chain ends. Non-standard residues stand in square brackets, D forms with d. Residues, ends and D or L forms follow the SMILES beside them. *: point of attachment. JQ1acid = Cc1sc2c(c1C)C(c1ccc(Cl)cc1)=N[C@@H](CC(=O)*)c1nnc(C)n1-2; dPhg(4-(4-Me-thiazol-5-yl)) = Cc1ncsc1-c1ccc([C@@H](N)C(=O)O)cc1; Phg(4-(4-Me-thiazol-5-yl)) = Cc1ncsc1-c1ccc([C@H](N)C(=O)O)cc1; X3 = Cc1ncsc1-c1ccc(C(N[*:1])C(=O)[*:2])cc1; dBip = N[C@H](Cc1ccc(-c2ccccc2)cc1)C(=O)O; Hyp = O=C(O)[C@@H]1C[C@@H](O)CN1; Tle = CC(C)(C)[C@H](N)C(=O)O; d(hCys) = N[C@H](CCS)C(=O)O; dDab = NCC[C@@H](N)C(=O)O; dNMeC = CN[C@H](CS)C(=O)O; dDap = NC[C@@H](N)C(=O)O; Dap = NC[C@H](N)C(=O)O; AEA = NCCOCC(=O)O; βAla = NCCC(=O)O
# Target: T1, BRD4 (Homo sapiens, UniProt O60885)
# T1 construct: Mean 488 intensity of BRD4 quantitated in nuclear region; endogenous in cells; host or cells: EoL-1 eosinophilic leukemia cells
# Experiment: BRD4 degradation assay in EOL1 cells (immunofluorescence imaging)
# Type: cell-based
# Settings: EoL-1 eosinophilic leukemia cells, 4 hours treatment, nuclear BRD4 immunofluorescence
# Procedure: BRD4 Degradation Assay in EOL1 Cells
# EoL-1 eosinophilic leukemia cells were seeded on day 1 at a density of 45,000 cells per well in Corning PureCoat Amine Microplates, (Corning #354719) in 45 μL/well of assay media (RPMI, 10% FBS, containing L-glutamine). After cells attached to cell plate, compounds were serially diluted ⅓ in dimethylsulfoxide (DMSO) to create 20-point dilutions across a 384 well v-bottom polypropylene microplate (Greiner #781091). 2 μL of each sample from the serial dilution was transferred to 98 μL of assay media as an intermediate dilution. 5 μL of each well of the intermediate dilution was added to 45 μL of cell plate. Columns 1, 2, 23 and 24 were treated with only 0.2% final concentration of DMSO for data normalization as “neutral controls”. After compound treatment, cell plates were stored in a 37° C. incubator for 4 hours. After 4 hours cells were fixed in 3.7% w/v final concentration of paraformaldehyde by addition of 15 μL of 16% w/v paraformaldehyde (Electron Microscopy Sciences #15710-S) directly to the 50 μL media and compound in the cell plate. Cell plate was incubated at RT for 20 minutes. Well contents were aspirated and washed with 100 μL/well PBS 3 times. 50 ul/well of phosphate Buffered Saline (PBS) (pH 7.5) containing 0.5% w/v bovine serum albumen, 0.5% w/v Triton X-100 (Block/Permeabilization Buffer) was added to each well. Samples were incubated for 20 minutes. Well contents were aspirated and washed 3 times with 100 μL/well of PBS. PBS was aspirated from the well and 50 μL per well of EoL-1 Block Buffer (PBS containing 10% Normal Goat Serum (AbCam #ab7481)) was added to each well. Plates were incubated at room temperature for 30 minutes. Block buffer was decanted from the wells. Immunofluorescence staining of BRD4 was carried out by diluting mAB Anti-BRD4 [EPR5150] antibody (Abcam 128874) 1:500 into Antibody Dilution Buffer (PBS, 2% Normal Goat Serum). 25 μL per well of BRD4 antibody diluted in buffer was added and incubated overnight at 4° C.
# On day-2 samples were washed 3 times with 100 μL/well of PBS. 25 μL/well of secondary antibody solution (Goat Anti-Rabbit IgG, DyLight 488 Conjugated Highly Cross-adsorbed Thermo Fisher #35553) and Hoechst 33342 1 μg/ml diluted in Antibody Dilution Buffer) were dispensed into each well. Hoechst 33342 only was added to bottom 3 columns for data normalization as “inhibitor controls”. Samples were incubated for 2 hours at room temperature. Samples were washed 3 times with 100 μL PBS. Quantitative fluorescence imaging of BRD4 was carried out using an Opera Phenix High-Content Screening System. Fluorescent images of the samples were captured using 488 nm and 405 nm channels. Hoechst channel was used to identify nuclear region. Mean 488 intensity of BRD4 quantitated in nuclear region. Data analysis was carried out using Genedata Screener, with DMSO and no primary antibody control treated samples being used to define the 0% and 100% changes in BRD4. The dose-response log(inhibitor) vs. response used to define the inflexion point of curve (DC50) and the plateau of the maximal effect.
# The individual topological polar surface area (TPSA) and cLogP values were calculated using Chemdraw v. 15.1 (PerkinElmer). Half life of the ternary VHL/BD1 and VHL/BD2 complexes, DC50 of BRD4 in EOL1 cells, topological polar surface area of a molecule (TPSA) and c log P (lipophilicity) for compounds described herein are provided in Table 3.
row,SMILES,DC50 [µM]
1,Cc1ncsc1-c1ccc([C@H]2NC(=O)[C@@H]3C[C@@H](O)CN3C(=O)[C@H](C(C)(C)C)NC(=O)CSC[C@H](C(N)=O)NC(=O)[C@@H](CNC(=O)C[C@@H]3N=C(c4ccc(Cl)cc4)c4c(sc(C)c4C)-n4c(C)nnc43)NC(=O)CNC2=O)cc1 [Compound 1] ({CH2CO}-[Tle][Hyp][dPhg(4-(4-Me-thiazol-5-yl))]G[dDap](JQ1acid)[dC]-NH2; thioether N-6),< 1
2,Cc1ncsc1-c1ccc([C@@H]2NC(=O)[C@@H]3C[C@@H](O)CN3C(=O)[C@H](C(C)(C)C)NC(=O)CSC[C@H](C(N)=O)NC(=O)[C@@H](CNC(=O)C[C@@H]3N=C(c4ccc(Cl)cc4)c4c(sc(C)c4C)-n4c(C)nnc43)NC(=O)CNC2=O)cc1 [Compound 2] ({CH2CO}-[Tle][Hyp][Phg(4-(4-Me-thiazol-5-yl))]G[dDap](JQ1acid)[dC]-NH2; thioether N-6),> 20
3,Cc1ncsc1-c1ccc(C2NC(=O)[C@@H]3C[C@@H](O)CN3C(=O)[C@H](C(C)(C)C)NC(=O)CSCC[C@H](C(N)=O)NC(=O)[C@@H](CNC(=O)C[C@@H]3N=C(c4ccc(Cl)cc4)c4c(sc(C)c4C)-n4c(C)nnc43)NC(=O)CNC2=O)cc1 (stereo partly drawn) [Compound 3] ({CH2CO}-[Tle][Hyp][X3]G[dDap](JQ1acid)[d(hCys)]-NH2; thioether N-6),< 1
4,Cc1ncsc1-c1ccc(C2NC(=O)[C@@H]3C[C@@H](O)CN3C(=O)[C@H](C(C)(C)C)NC(=O)CSC[C@H](C(N)=O)NC(=O)[C@@H](CNC(=O)C[C@@H]3N=C(c4ccc(Cl)cc4)c4c(sc(C)c4C)-n4c(C)nnc43)NC(=O)CCNC2=O)cc1 (stereo partly drawn) [Compound 4] ({CH2CO}-[Tle][Hyp][X3][βAla][dDap](JQ1acid)[dC]-NH2; thioether N-6),< 20
5,Cc1ncsc1-c1ccc([C@H]2NC(=O)[C@@H]3C[C@@H](O)CN3C(=O)[C@H](C(C)(C)C)NC(=O)CSCC[C@H](C(N)=O)NC(=O)[C@@H](CNC(=O)C[C@@H]3N=C(c4ccc(Cl)cc4)c4c(sc(C)c4C)-n4c(C)nnc43)NC(=O)CCNC2=O)cc1 [Compound 5] ({CH2CO}-[Tle][Hyp][dPhg(4-(4-Me-thiazol-5-yl))][βAla][dDap](JQ1acid)[d(hCys)]-NH2; thioether N-6),< 20
6,Cc1ncsc1-c1ccc([C@H]2NC(=O)[C@@H]3C[C@@H](O)CN3C(=O)[C@H](C(C)(C)C)NC(=O)CNC(=O)[C@H](CCC(N)=O)NC(=O)[C@@H](CNC(=O)C[C@@H]3N=C(c4ccc(Cl)cc4)c4c(sc(C)c4C)-n4c(C)nnc43)NC(=O)CNC2=O)cc1 [Compound 6] (cyclo(G[Tle][Hyp][dPhg(4-(4-Me-thiazol-5-yl))]G[dDap](JQ1acid)Q)),< 20
7,Cc1ncsc1-c1ccc([C@@H]2NC(=O)[C@@H]3C[C@@H](O)CN3C(=O)[C@H](C(C)(C)C)NC(=O)CNC(=O)[C@H](CCC(N)=O)NC(=O)[C@@H](CNC(=O)C[C@@H]3N=C(c4ccc(Cl)cc4)c4c(sc(C)c4C)-n4c(C)nnc43)NC(=O)CNC2=O)cc1 [Compound 7] (cyclo(G[Tle][Hyp][Phg(4-(4-Me-thiazol-5-yl))]G[dDap](JQ1acid)Q)),< 20
8,Cc1sc2c(c1C)C(c1ccc(Cl)cc1)=N[C@@H](CC(=O)NC[C@H]1NC(=O)CNC(=O)[C@@H](C)NC(=O)[C@@H]3C[C@@H](O)CN3C(=O)[C@H](C(C)(C)C)NC(=O)CSC[C@H](C(N)=O)NC1=O)c1nnc(C)n1-2 [Compound 8] ({CH2CO}-[Tle][Hyp][dA]G[dDap](JQ1acid)[dC]-NH2; thioether N-6),< 20
9,Cc1ncsc1-c1ccc([C@H]2NC(=O)[C@@H]3C[C@@H](O)CN3C(=O)[C@H](C(C)(C)C)NC(=O)CSC[C@H](C(N)=O)NC(=O)[C@@H](CCNC(=O)C[C@@H]3N=C(c4ccc(Cl)cc4)c4c(sc(C)c4C)-n4c(C)nnc43)NC(=O)CNC2=O)cc1 [Compound 9] ({CH2CO}-[Tle][Hyp][dPhg(4-(4-Me-thiazol-5-yl))]G[dDab](JQ1acid)[dC]-NH2; thioether N-6),> 20
10,Cc1ncsc1-c1ccc([C@@H]2NC(=O)[C@@H]3C[C@@H](O)CN3C(=O)[C@H](C(C)(C)C)NC(=O)CSC[C@H](C(N)=O)NC(=O)[C@@H](CCNC(=O)C[C@@H]3N=C(c4ccc(Cl)cc4)c4c(sc(C)c4C)-n4c(C)nnc43)NC(=O)CNC2=O)cc1 [Compound 10] ({CH2CO}-[Tle][Hyp][Phg(4-(4-Me-thiazol-5-yl))]G[dDab](JQ1acid)[dC]-NH2; thioether N-6),> 20
11,Cc1ncsc1-c1ccc([C@H]2NC(=O)[C@@H]3C[C@@H](O)CN3C(=O)[C@H](C(C)(C)C)NC(=O)CSC[C@H](C(=O)NCC(=O)NCC(=O)NCC(N)=O)NC(=O)[C@@H](CNC(=O)C[C@@H]3N=C(c4ccc(Cl)cc4)c4c(sc(C)c4C)-n4c(C)nnc43)NC(=O)CNC2=O)cc1 [Compound 11] ({CH2CO}-[Tle][Hyp][dPhg(4-(4-Me-thiazol-5-yl))]G[dDap](JQ1acid)[dC]GGG-NH2; thioether N-6),> 20
12,Cc1ncsc1-c1ccc([C@H]2NC(=O)[C@@H]3C[C@@H](O)CN3C(=O)[C@H](C(C)(C)C)NC(=O)CSC[C@H](C(N)=O)NC(=O)[C@@H](CNC(=O)C[C@@H]3N=C(c4ccc(Cl)cc4)c4c(sc(C)c4C)-n4c(C)nnc43)NC(=O)[C@H](C)NC2=O)cc1 [Compound 12] ({CH2CO}-[Tle][Hyp][dPhg(4-(4-Me-thiazol-5-yl))]A[dDap](JQ1acid)[dC]-NH2; thioether N-6),> 20
13,Cc1ncsc1-c1ccc([C@H]2NC(=O)[C@@H]3C[C@@H](O)CN3C(=O)[C@H](C(C)(C)C)NC(=O)CSC[C@H](C(N)=O)NC(=O)[C@H](CNC(=O)C[C@@H]3N=C(c4ccc(Cl)cc4)c4c(sc(C)c4C)-n4c(C)nnc43)NC(=O)CNC2=O)cc1 [Compound 13] ({CH2CO}-[Tle][Hyp][dPhg(4-(4-Me-thiazol-5-yl))]G[Dap](JQ1acid)[dC]-NH2; thioether N-6),> 20
14,Cc1ncsc1-c1ccc([C@@H]2NC(=O)[C@@H]3C[C@@H](O)CN3C(=O)[C@H](C(C)(C)C)NC(=O)CSC[C@H](C(N)=O)NC(=O)[C@H](CNC(=O)C[C@@H]3N=C(c4ccc(Cl)cc4)c4c(sc(C)c4C)-n4c(C)nnc43)NC(=O)CNC2=O)cc1 [Compound 14] ({CH2CO}-[Tle][Hyp][Phg(4-(4-Me-thiazol-5-yl))]G[Dap](JQ1acid)[dC]-NH2; thioether N-6),> 20
15,Cc1ncsc1-c1ccc([C@H]2NC(=O)[C@@H]3C[C@@H](O)CN3C(=O)[C@H](C(C)(C)C)NC(=O)CSC[C@H](C(N)=O)N(C)C(=O)[C@@H](CNC(=O)C[C@@H]3N=C(c4ccc(Cl)cc4)c4c(sc(C)c4C)-n4c(C)nnc43)NC(=O)CNC2=O)cc1 [Compound 15] ({CH2CO}-[Tle][Hyp][dPhg(4-(4-Me-thiazol-5-yl))]G[dDap](JQ1acid)[dNMeC]-NH2; thioether N-6),< 20
16,Cc1ncsc1-c1ccc([C@H]2NC(=O)[C@@H]3C[C@@H](O)CN3C(=O)[C@H](C(C)(C)C)NC(=O)COCCNC(=O)[C@@H](CNC(=O)C[C@@H]3N=C(c4ccc(Cl)cc4)c4c(sc(C)c4C)-n4c(C)nnc43)NC(=O)CNC2=O)cc1 [Compound 16] (cyclo([AEA][Tle][Hyp][dPhg(4-(4-Me-thiazol-5-yl))]G[dDap](JQ1acid))),< 1
17,Cc1ncsc1-c1ccc([C@@H]2NC(=O)[C@@H]3C[C@@H](O)CN3C(=O)[C@H](C(C)(C)C)NC(=O)COCCNC(=O)[C@@H](CNC(=O)C[C@@H]3N=C(c4ccc(Cl)cc4)c4c(sc(C)c4C)-n4c(C)nnc43)NC(=O)CNC2=O)cc1 [Compound 17] (cyclo([AEA][Tle][Hyp][Phg(4-(4-Me-thiazol-5-yl))]G[dDap](JQ1acid))),< 1
18,Cc1sc2c(c1C)C(c1ccc(Cl)cc1)=N[C@@H](CC(=O)NC[C@H]1NC(=O)CNC(=O)[C@@H](Cc3ccc(-c4ccccc4)cc3)NC(=O)[C@@H]3C[C@@H](O)CN3C(=O)[C@H](C(C)(C)C)NC(=O)CSC[C@H](C(N)=O)NC1=O)c1nnc(C)n1-2 [Compound 18] ({CH2CO}-[Tle][Hyp][dBip]G[dDap](JQ1acid)[dC]-NH2; thioether N-6),< 1
